Source: ChEMBL document CHEMBL4312011, “Synthesis and biological evaluation of triterpenoid thiazoles derived from betulonic acid, dihydrobetulonic acid, and ursonic acid” (Eur J Med Chem, 2020)

Columns and labels:
MRC5 = assay: Cytotoxicity against human MRC5 cells incubated for 72 hrs by MTS assay; assay type: cell-based; details: MRC5, 72 h
K562 = assay: Cytotoxicity against human K562 cells incubated for 72 hrs by MTS assay; assay type: functional, cell-based; details: K562, 72 h
[1] = Cytotoxicity against human CEM-DNR-bulk cells incubated for 72 hrs by MTS assay; assay type: functional, cell-based
U2OS = assay: Cytotoxicity against human U2OS cells incubated for 72 hrs by MTS assay; assay type: functional, cell-based
HCT-116 [2] = assay: Cytotoxicity against human HCT116 cells incubated for 72 hrs by MTS assay; assay type: functional, cell-based; details: HCT-116, 72 h
A549 = assay: Cytotoxicity against human A549 cells incubated for 72 hrs by MTS assay; assay type: functional, cell-based; details: A549, 72 h
BJ = assay: Cytotoxicity against human BJ cells incubated for 72 hrs by MTS assay; assay type: cell-based
HCT-116 [3] = assay: Cytotoxicity against p53 knockout human HCT116 cells incubated for 72 hrs by MTS assay; assay type: functional, cell-based; details: HCT-116, 72 h
[4] = Cytotoxicity against human K562-TAX cells incubated for 72 hrs by MTS assay; assay type: functional, cell-based
CCRF-CEM = assay: Cytotoxicity against human CCRF-CEM cells incubated for 72 hrs by MTS assay; assay type: functional, cell-based

Question: For `C=C(C)[C@@H]1CC[C@]2(C(=O)O)CC[C@]3(C)[C@H](CC[C@@H]4[C@@]5(C)Cc6sc(N7CCCCC7)nc6C(C)(C)[C@@H]5CC[C@]43C)[C@@H]12`, which IC50 (MRC5) is on record?
Answer: Its IC50 is 50 µM.

Question: What about the IC50 (K562) of the same compound?
Answer: Its IC50 is 35.9 µM.

Question: What about the IC50 [1] of the same compound?
Answer: Its IC50 is greater than 50 µM.

Question: And the IC50 (U2OS)?
Answer: Its IC50 is greater than 50 µM.

Question: And the IC50 (HCT-116 [2])?
Answer: The IC50 was greater than 50 µM.

Question: What about the IC50 (A549) of the same compound?
Answer: Its IC50 is greater than 50 µM.

Question: And the IC50 (BJ)?
Answer: Its IC50 is greater than 50 µM.

Question: What about the IC50 (HCT-116 [3]) of the same compound?
Answer: The IC50 was greater than 50 µM.

Question: And the IC50 [4]?
Answer: The IC50 was greater than 50 µM.

Question: What about the IC50 (CCRF-CEM) of the same compound?
Answer: Its IC50 is 9.3 µM.

Question: What does the source list for `CCN(CC)c1nc2c(s1)C[C@]1(C)[C@H]3CC=C4[C@@H]5[C@@H](C)[C@H](C)CC[C@]5(C(=O)O)CC[C@@]4(C)[C@]3(C)CC[C@H]1C2(C)C`?
Answer: IC50 (MRC5): > 50 µM; IC50 (K562): > 50 µM; IC50 [1]: > 50 µM; IC50 (U2OS): > 50 µM; IC50 (HCT-116 [2]): 41.3 µM; IC50 (A549): > 50 µM; IC50 (BJ): > 50 µM; IC50 (HCT-116 [3]): > 50 µM; IC50 [4]: > 50 µM; IC50 (CCRF-CEM): 26.6 µM

Question: For `C=C(C)[C@@H]1CC[C@]2(C(=O)O)CC[C@]3(C)[C@H](CC[C@@H]4[C@@]5(C)Cc6sc(NCc7ccccc7)nc6C(C)(C)[C@@H]5CC[C@]43C)[C@@H]12`, which IC50 (MRC5) is on record?
Answer: Its IC50 is greater than 50 µM.

Question: What about the IC50 (K562) of the same compound?
Answer: Its IC50 is greater than 50 µM.

Question: What about the IC50 [1] of the same compound?
Answer: Its IC50 is greater than 50 µM.

Question: And the IC50 (U2OS)?
Answer: Its IC50 is 47.5 µM.

Question: And the IC50 (HCT-116 [2])?
Answer: The IC50 was greater than 50 µM.

Question: What about the IC50 (A549) of the same compound?
Answer: Its IC50 is greater than 50 µM.

Question: What about the IC50 (BJ) of the same compound?
Answer: The IC50 was greater than 50 µM.

Question: What about the IC50 (HCT-116 [3]) of the same compound?
Answer: Its IC50 is greater than 50 µM.

Question: What about the IC50 [4] of the same compound?
Answer: Its IC50 is greater than 50 µM.

Question: And the IC50 (CCRF-CEM)?
Answer: Its IC50 is 3.7 µM.

Question: With `C[C@H]1[C@H](C)CC[C@]2(C(=O)O)CC[C@]3(C)C(=CC[C@@H]4[C@@]5(C)Cc6sc(NC7CCCCC7)nc6C(C)(C)[C@@H]5CC[C@]43C)[C@H]12` as the compound, how does the IC50 (MRC5) read?
Answer: Its IC50 is greater than 50 µM.

Question: What about the IC50 (K562) of the same compound?
Answer: Its IC50 is greater than 50 µM.

Question: What about the IC50 [1] of the same compound?
Answer: The IC50 was greater than 50 µM.

Question: And the IC50 (U2OS)?
Answer: The IC50 was greater than 50 µM.

Question: And the IC50 (HCT-116 [2])?
Answer: The IC50 was greater than 50 µM.

Question: And the IC50 (A549)?
Answer: Its IC50 is greater than 50 µM.

Question: And the IC50 (BJ)?
Answer: Its IC50 is greater than 50 µM.

Question: What about the IC50 (HCT-116 [3]) of the same compound?
Answer: Its IC50 is greater than 50 µM.

Question: And the IC50 [4]?
Answer: The IC50 was greater than 50 µM.

Question: What about the IC50 (CCRF-CEM) of the same compound?
Answer: The IC50 was 19.4 µM.

Question: For `C=C(C)[C@@H]1CC[C@]2(C(=O)O)CC[C@]3(C)[C@H](CC[C@@H]4[C@@]5(C)Cc6sc(N7CCOCC7)nc6C(C)(C)[C@@H]5CC[C@]43C)[C@@H]12`, which IC50 (MRC5) is on record?
Answer: Its IC50 is greater than 50 µM.

Question: What about the IC50 (K562) of the same compound?
Answer: Its IC50 is 11.2 µM.

Question: And the IC50 [1]?
Answer: The IC50 was greater than 50 µM.

Question: What about the IC50 (U2OS) of the same compound?
Answer: The IC50 was greater than 50 µM.

Question: What about the IC50 (HCT-116 [2]) of the same compound?
Answer: Its IC50 is greater than 50 µM.

Question: What about the IC50 (A549) of the same compound?
Answer: The IC50 was greater than 50 µM.

Question: What about the IC50 (BJ) of the same compound?
Answer: The IC50 was greater than 50 µM.

Question: And the IC50 (HCT-116 [3])?
Answer: Its IC50 is greater than 50 µM.

Question: And the IC50 [4]?
Answer: The IC50 was greater than 50 µM.

Question: And the IC50 (CCRF-CEM)?
Answer: Its IC50 is 7.2 µM.

Question: What does the source list for `C[C@H]1[C@H](C)CC[C@]2(C(=O)O)CC[C@]3(C)C(=CC[C@@H]4[C@@]5(C)Cc6sc(N7CCCC7)nc6C(C)(C)[C@@H]5CC[C@]43C)[C@H]12`?
Answer: IC50 (MRC5): > 50 µM; IC50 (K562): > 50 µM; IC50 [1]: 39 µM; IC50 (U2OS): > 50 µM; IC50 (HCT-116 [2]): 39 µM; IC50 (A549): > 50 µM; IC50 (BJ): > 50 µM; IC50 (HCT-116 [3]): > 50 µM; IC50 [4]: 37.5 µM; IC50 (CCRF-CEM): 10.7 µM

Question: With `C[C@H]1[C@H](C)CC[C@]2(C(=O)O)CC[C@]3(C)C(=CC[C@@H]4[C@@]5(C)Cc6sc(N7CCOCC7)nc6C(C)(C)[C@@H]5CC[C@]43C)[C@H]12` as the compound, how does the IC50 (MRC5) read?
Answer: Its IC50 is greater than 50 µM.

Question: And the IC50 (K562)?
Answer: The IC50 was 8.6 µM.

Question: What about the IC50 [1] of the same compound?
Answer: The IC50 was 23.8 µM.

Question: What about the IC50 (U2OS) of the same compound?
Answer: Its IC50 is 29.1 µM.

Question: And the IC50 (HCT-116 [2])?
Answer: The IC50 was 23.6 µM.

Question: And the IC50 (A549)?
Answer: Its IC50 is 28.8 µM.

Question: And the IC50 (BJ)?
Answer: Its IC50 is greater than 50 µM.

Question: What about the IC50 (HCT-116 [3]) of the same compound?
Answer: Its IC50 is 37.9 µM.

Question: What about the IC50 [4] of the same compound?
Answer: The IC50 was 29.7 µM.

Question: And the IC50 (CCRF-CEM)?
Answer: The IC50 was 8.5 µM.

Question: For `CC(C)[C@@H]1CC[C@]2(C(=O)O)CC[C@]3(C)[C@H](CC[C@@H]4[C@@]5(C)CCC(=O)C(C)(C)[C@@H]5CC[C@]43C)[C@@H]12` [DIHYDROBETULONIC ACID], which IC50 (MRC5) is on record?
Answer: The IC50 was greater than 50 µM.

Question: And the IC50 (K562)?
Answer: Its IC50 is 11.6 µM.

Question: And the IC50 [1]?
Answer: The IC50 was 48.3 µM.

Question: And the IC50 (U2OS)?
Answer: Its IC50 is 27.5 µM.

Question: And the IC50 (HCT-116 [2])?
Answer: Its IC50 is 33.5 µM.

Question: What about the IC50 (A549) of the same compound?
Answer: Its IC50 is 22.2 µM.

Question: And the IC50 (BJ)?
Answer: The IC50 was greater than 50 µM.

Question: And the IC50 (HCT-116 [3])?
Answer: Its IC50 is 36.4 µM.

Question: And the IC50 [4]?
Answer: The IC50 was 11.1 µM.

Question: What about the IC50 (CCRF-CEM) of the same compound?
Answer: Its IC50 is 6.2 µM.

Question: Which results are given for `C[C@H]1[C@H](C)CC[C@]2(C(=O)O)CC[C@]3(C)C(=CC[C@@H]4[C@@]5(C)Cc6sc(N)nc6C(C)(C)[C@@H]5CC[C@]43C)[C@H]12`?
Answer: IC50 (MRC5): > 50 µM; IC50 (K562): > 50 µM; IC50 [1]: 29.5 µM; IC50 (U2OS): 49.6 µM; IC50 (HCT-116 [2]): 43 µM; IC50 (A549): > 50 µM; IC50 (BJ): > 50 µM; IC50 (HCT-116 [3]): > 50 µM; IC50 [4]: 33.1 µM; IC50 (CCRF-CEM): 19 µM
